Source: patent US20100285959A1, “HERBICIDAL MIXTURES” (priority 2006, published 2010)

What was measured:
Canada horseweed (ERICA) = assay: Test 9 field trial, emerged weeds before corn planting; assay type: in vivo, Erigeron canadensis; conditions: g a.i./ha: Cpd 2 100, Glyphosate 1540, Paraquat 1150
Description: Corn seeds (hybrid ‘Pioneer 34M91 RR’) were planted in mid spring season, about 3.8 cm deep in a silty clay loam soil having a pH of 6.7. Plots were 9.1 m long by 3.0 m. The field was managed using no-till practices. […] Compound 2 and paraquat treatments, alone and in combination, also included a surfactant. Glyphosate, alone and with Compound 2, included ammonium sulfate in the treatment mixture. […] The effects on the weeds in the treated plots and untreated control plots were recorded 7, 14, 23, 30 and 57 days after application. Most of the weed species could not be evaluated at every timing. Corn response was only evaluated 57 days after application. […] Results are the means of the three replicates.

field poppy (PAPRH) = assay: Test 24 growth chamber, postemergence; assay type: in vivo, Papaver rhoeas; conditions: 17 DAA
Description: Plants were treated postemergence at the 2-4 leaf growth stage, and each treatment was replicated three times. […] Plants were watered as needed. […] Results for barley and wheat are the means across varieties of the three replicates, and results for the weeds are the means of the three replicates.

giant foxtail (SETFA) = assay: Test 25 field trial, postemergence, growth as percent of control; assay type: in vivo, Setaria faberi
Source text: Corn seeds (hybrid ‘Pioneer 31G96 RR’) were planted in mid spring season, 3.8 cm deep in a clay loam soil having 2% organic matter and a pH of 6.6. Plots were 6.1 m long by 3.0 m wide with rows spaced 76 cm apart. Seeds were spaced 15 cm apart within the rows. The field was managed using conventional tillage practices. […] Giant ragweed and Pennsylvania smartweed could only be evaluated 14 days after application. […] Results are the means of the three replicates. This growth inhibition data was converted to results in the form of “plant growth as a percent of control plant growth” using the calculation “100 minus growth inhibition”.
When this form of Colby's Equation is used, if the observed effects on weeds are less than the expected values, the mixture is synergistic.

[1] = test system: common lambsquarters (CHEAL); assay: Test 26 field trial, postemergence; assay type: in vivo, Chenopodium album; design: scale not given here
Source text: (§1) Corn seeds (hybrid ‘Pioneer 31G96’) were planted in mid spring season, 3.8 cm deep in a silt loam soil having 2% organic matter and a pH of 6.6. Plots were 6.1 m long by 3.0 m wide with rows spaced 76 cm apart. Seeds were spaced 15 cm apart within the rows. The field was managed using conventional tillage practices. […] All treatments also included a surfactant. […] Some of the weed species could not be evaluated at every timing. […] Results are the means of the three replicates.

jimsonweed (DATST) = assay: Test 26 field trial, postemergence; assay type: in vivo, Datura stramonium; conditions: 28 DAA
Source text: as §1

winter wheat (TRZAW) = assay: Test 27 field trial, postemergence; assay type: in vivo, Triticum aestivum; design: scale not given here
Source text: (§2) Wheat seeds (cv. ‘Custer’) were planted in late fall season in a clay loam soil. Plots were 9 m long by 1.8 m wide. The field was managed using conventional tillage practices. […] All treatments also included a surfactant. […] Results are the means of the three replicates.

kochia (KCHSC) = assay: Test 27 field trial, postemergence; assay type: in vivo, Kochia scoparia; design: scale not given here
Source text: as §2

sorghum (SORVU) = assay: Test 28 greenhouse, postemergence; assay type: in vivo, Sorghum vulgare; conditions: 26 DAA
Description: A greenhouse test was conducted to evaluate the effects on the plant species corn (ZEAMD, Zea mays ssp. indentata), sorghum (SORVU, Sorghum vulgare L.), dry-seeded rice (ORYSA, Oryza sativa L.), wheat (TRZAW, Triticum aestivum L.), ivyleaf morningglory (IPOHE, Ipomoea hederacea (L.) JACQ.), and barnyardgrass (ECHCG, Echinochloa crus-galli (L.) P. BEAUV.), of mixtures of Compound 2 with isoxadifen-ethyl. Corn, sorghum, rice, wheat, ivyleaf morningglory and barnyardgrass seeds were planted in RediEarth, a commercial potting medium. […] Corn plants were treated postemergence at the V2 growth stage, and sorghum, rice, wheat, ivyleaf morningglory, and barnyardgrass plants were treated postemergence at the 3-leaf stage. […] Each treatment was replicated three times. […] Plants were watered as needed.

## COC(=O)c1nc(C2CC2)nc(N)c1Cl [Compound 2, methyl 6-amino-5-chloro-2-cyclopropyl-4-pyrimidinecarboxylate]
Canada horseweed (ERICA); 7 DAA
  ERICA Obs: 62%
Canada horseweed (ERICA); 14 DAA
  ERICA Obs: 68%
Canada horseweed (ERICA); 23 DAA
  ERICA Obs: 75%
Canada horseweed (ERICA); 30 DAA
  ERICA Obs: 83%
Canada horseweed (ERICA); 57 DAA
  ERICA Obs: 100%
Field poppy (PAPRH); Cpd 2 4 g a.i./ha
  PAPRH Obs (scale 0 to 100): 62
Field poppy (PAPRH); Cpd 2 8 g a.i./ha
  PAPRH Obs (scale 0 to 100): 72
Field poppy (PAPRH); Cpd 2 16 g a.i./ha
  PAPRH Obs (scale 0 to 100): 75
Giant foxtail (SETFA); Cpd 2 15 g a.i./ha, 14 DAA
  SETFA Obs (percent of control): 93%
Giant foxtail (SETFA); Cpd 2 15 g a.i./ha, 28 DAA
  SETFA Obs (percent of control): 98%
Giant foxtail (SETFA); Cpd 2 15 g a.i./ha, 56 DAA
  SETFA Obs (percent of control): 100%
Giant foxtail (SETFA); Cpd 2 30 g a.i./ha, 14 DAA
  SETFA Obs (percent of control): 85%
Giant foxtail (SETFA); Cpd 2 30 g a.i./ha, 28 DAA
  SETFA Obs (percent of control): 88%
Giant foxtail (SETFA); Cpd 2 30 g a.i./ha, 56 DAA
  SETFA Obs (percent of control): 80%
Giant foxtail (SETFA); Cpd 2 45 g a.i./ha, 14 DAA
  SETFA Obs (percent of control): 73%
Giant foxtail (SETFA); Cpd 2 45 g a.i./ha, 28 DAA
  SETFA Obs (percent of control): 80%
Giant foxtail (SETFA); Cpd 2 45 g a.i./ha, 56 DAA
  SETFA Obs (percent of control): 83%
[1]; 14 DAA, 30 g a.i./ha
  CHEAL Obs: 88
[1]; 14 DAA, 45 g a.i./ha
  CHEAL Obs: 63
[1]; 14 DAA, 60 g a.i./ha
  CHEAL Obs: 100
[1]; 28 DAA, 30 g a.i./ha
  CHEAL Obs: 100
[1]; 28 DAA, 45 g a.i./ha
  CHEAL Obs: 100
[1]; 28 DAA, 60 g a.i./ha
  CHEAL Obs: 100
[1]; 56 DAA, 30 g a.i./ha
  CHEAL Obs: 100
[1]; 56 DAA, 45 g a.i./ha
  CHEAL Obs: 100
[1]; 56 DAA, 60 g a.i./ha
  CHEAL Obs: 100
Jimsonweed (DATST); 30 g a.i./ha
  DATST Obs: 100
Jimsonweed (DATST); 45 g a.i./ha
  DATST Obs: 100
Jimsonweed (DATST); 60 g a.i./ha
  DATST Obs: 100
Winter wheat (TRZAW); 16 DAA, 15 g a.i./ha
  TRZAW Obs: 2
Winter wheat (TRZAW); 16 DAA, 30 g a.i./ha
  TRZAW Obs: 10
Winter wheat (TRZAW); 16 DAA, 45 g a.i./ha
  TRZAW Obs: 17
Winter wheat (TRZAW); 28 DAA, 15 g a.i./ha
  TRZAW Obs: 0
Winter wheat (TRZAW); 28 DAA, 30 g a.i./ha
  TRZAW Obs: 12
Winter wheat (TRZAW); 28 DAA, 45 g a.i./ha
  TRZAW Obs: 25
Winter wheat (TRZAW); 49 DAA, 15 g a.i./ha
  TRZAW Obs: 3
Winter wheat (TRZAW); 49 DAA, 30 g a.i./ha
  TRZAW Obs: 17
Winter wheat (TRZAW); 49 DAA, 45 g a.i./ha
  TRZAW Obs: 35
Kochia (KCHSC); 16 DAA, 15 g a.i./ha
  KCHSC Obs: 30
Kochia (KCHSC); 16 DAA, 30 g a.i./ha
  KCHSC Obs: 65
Kochia (KCHSC); 16 DAA, 45 g a.i./ha
  KCHSC Obs: 78
Kochia (KCHSC); 28 DAA, 15 g a.i./ha
  KCHSC Obs: 43
Kochia (KCHSC); 28 DAA, 30 g a.i./ha
  KCHSC Obs: 79
Kochia (KCHSC); 28 DAA, 45 g a.i./ha
  KCHSC Obs: 94
Kochia (KCHSC); 49 DAA, 15 g a.i./ha
  KCHSC Obs: 32
Kochia (KCHSC); 49 DAA, 30 g a.i./ha
  KCHSC Obs: 73
Kochia (KCHSC); 49 DAA, 45 g a.i./ha
  KCHSC Obs: 96
Sorghum (SORVU); Cpd 2 32 g a.i./ha
  SORVU Obs: 73%
Sorghum (SORVU); Cpd 2 64 g a.i./ha
  SORVU Obs: 96%

## O=C(O)CNCP(=O)(O)O [Glyphosate]
Canada horseweed (ERICA); 7 DAA
  ERICA Obs: 45%
Canada horseweed (ERICA); 14 DAA
  ERICA Obs: 76%
Canada horseweed (ERICA); 23 DAA
  ERICA Obs: 98%
Canada horseweed (ERICA); 30 DAA
  ERICA Obs: 100%
Canada horseweed (ERICA); 57 DAA
  ERICA Obs: 84%
